Experiments:
Assay type in all cases: cell-based
[1] = test system: L. donovani HU3 strain in mouse peritoneal macrophages; test: Assay for inhibition of parasitemia of Leishmania donovani in mouse macrophages (SYBR Green nuclei count, high-content imaging); conditions: Leishmania donovani, Peritoneal macrophage, L. donovani in mouse peritoneal macrophages; read-out: L. donovani in Mouse Macrophages EC50
Source text: Assay for Inhibition of Parasitemia of Leishmania donovani in Mouse Macrophages
The assay measures the increase in the parasite number in the assayed plate well using a DNA intercalating dye, SYBR Green I® dye (INVITROGEN) to stain Leishmania cell nuclei. L. donovani HU3 strain is propagated by infecting BALB/c mice through tail vein injection with 10^7 Leishmania parasites. Infected mice are allowed to develop infection during 9-11 weeks post-infection. During this time, the parasites accumulate in the infected mouse spleens to large numbers, and the infected mice serve as the source of parasites for the in vitro measurement of compound efficacies. To assay a compound for anti-leishmanial activity, peritoneal macrophages isolated from non-infected BALB/c mice are seeded into 384-well plates at density 2×10^4 macrophages per well in […] of medium (RPM11640, 10% fetal serum albumin, 10 mM HEPES, 1 mM sodium pyruvate, 1% Pen/Strep). Subsequently, the seeded plates are placed into an incubator set to maintain 37° C. temperature and atmosphere with 5% CO2.
The next day, Leishmania parasites are isolated from the spleens of mice infected for 9-11 weeks and 4×10^5 isolated parasites in […] of the above media are added to each plate well. Plates are then returned into incubators and infection is allowed to proceed for 24 hours. After the infection of macrophages is completed, […] of compounds of the invention in the above medium, which also contains 5% DMSO, are added to plate wells containing infected macrophages. At the same time control compounds (miltefosine and amphotericin B) and DMSO are added to plates to serve as the positive and negative controls, respectively. After the compound addition, the plates are returned into incubator and cells infected with parasites are cultured for 5 days. At the end of cultivation, […] of 8% paraformaldehyde is added to plate wells and incubated for 15 min at room temperature. Following the incubation, the paraformaldehyde from plate wells is aspirated, and […] of PBS containing 0.2% Triton X-100 is added to wells. After 15 min incubation, the solution is aspirated from wells again, and replaced with Sybr® Green Dye solution in PBS (1:125,000 dilution). Infected cells are imaged with Evotec Opera high-content microscope, and the number of parasites in well is determined by counting parasite nuclei visualized by staining with Sybr® Green dye.

[2] = test system: Leishmania donovani axenic amastigote; test: In vitro assay for growth inhibition of Leishmania donovani axenic amastigote (Cell TiterGlo luminescence); conditions: Leishmania donovani, L. donovani axenic amastigotes in vitro; read-out: L. donovani amastigotes EC50
Procedure, shortened: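 Compound-treated wells received 9600 axenic amastigotes in RPMI 1640-based medium at pH 5.5 (37 °C, 5% CO2). Growth measured as ATP luminescence (CellTiter-Glo) after 2-day incubation; DMSO and reference compounds served as controls.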

[3] = test system: Trypanosoma cruzi amastigotes cultured in 3T3 fibroblast cells; test: Assay for growth inhibition of kinetoplastid parasite Trypanosoma cruzi (beta-galactosidase Tulahuen strain, CPRG readout); conditions: Trypanosoma cruzi, Fibroblast, T. cruzi amastigotes in 3T3 fibroblast cells; read-out: Buckner infectious T. cruzi EC50
Procedure, shortened: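 3T3 fibroblasts (1,000 cells/well) plated overnight, treated with compound in DMSO, then infected with 10,000 Lac-Z-expressing Tulahuen trypomastigotes. After 6 days, 0.6 mM CPRG with 0.6% NP-40 added for 2 h at room temperature; absorbance gives relative intracellular amastigote numbers. Benznidazole and nifurtimox serve as positive controls.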

[4] = test system: Trypanosoma brucei brucei (Lister 427) strain; test: Assay for growth inhibition against Trypanosoma brucei brucei (Cell TiterGlo ATP luminescence); conditions: Trypanosoma brucei, T. brucei brucei (Lister 427); read-out: T. Brucei (HAT) EC50
Procedure, shortened: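 Growth read-out is cellular ATP by CellTiter-Glo luminescence, measured 30 min after reagent addition, following 2-day incubation at 37 °C in CO2. Parasites (10,000/mL, HMI-9 plus 10% FBS and 10% serum plus) faced 10 threefold dilutions in duplicate; IC50 taken as 50% growth inhibition versus untreated.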

Row | Compound | EC50 [1] [nM] | EC50 [2] [nM] | EC50 [3] [nM] | EC50 [4] [nM]
1 | CCC(C)(C)c1cnc2nn(-c3cc(NC(=O)N4CC(F)(F)C4)ccc3F)cc2c1 [Compound 35, 3,3-difluoro-N-{4-fluoro-3-[5-(2-methylbutan-2-yl)-2H-pyrazolo[3,4-b]pyridin-2-yl]phenyl}azetidine-1-carboxamide] | 520 | 580 | 380 | 850
2 | CC(C)CCc1cnc2nn(-c3cc(NC(=O)N4CC(F)(F)C4)ccc3F)cc2c1 [Compound 38, 3,3-difluoro-N-{4-fluoro-3-[5-(3-methylbutyl)-2H-pyrazolo[3,4-b]pyridin-2-yl]phenyl}azetidine-1-carboxamide] | 33 | 31 | 62 | 24
3 | O=C(Nc1ccc(F)c(-n2cc3cc(-c4ccccn4)cnc3n2)c1)N1CC(F)(F)C1 [Compound 39, 3,3-difluoro-N-(4-fluoro-3-(5-(pyridin-2-yl)-2H-pyrazolo[3,4-b]pyridin-2-yl)phenyl)azetidine-1-carboxamide] | 3.8 | 2.4 | 2 | < 23
4 | O=C(Nc1ccc(F)c(-n2cc3cc(C4CC4)cnc3n2)c1)N1CC[C@@H](F)C1 [Compound 42, (3R)-N-(3-{5-cyclopropyl-2H-pyrazolo[3,4-b]pyridin-2-yl}-4-fluorophenyl)-3-fluoropyrrolidine-1-carboxamide] | 6 | 3 | 1.8 | < 23
5 | CC(C)(C)Cc1cnc2nn(-c3cc(NC(=O)N4CC[C@@H](F)C4)ccc3F)cc2c1 [Compound 46, (3R)-N-{3-[5-(2,2-dimethylpropyl)-2H-pyrazolo[3,4-b]pyridin-2-yl]-4-fluorophenyl}-3-fluoropyrrolidine-1-carboxamide] | 3.5 | 8.4 | 1.7 | < 23
6 | CCCC(C)c1cnc2nn(-c3cc(NC(=O)N4CC[C@@H](F)C4)ccc3F)cc2c1 (stereo partly drawn) [Compound 48, (3R)-3-fluoro-N-{4-fluoro-3-[5-(pentan-2-yl)-2H-pyrazolo[3,4-b]pyridin-2-yl]phenyl}pyrrolidine-1-carboxamide] | 330 | 350 | 290 | 50
7 | CCC(C)(C)c1cnc2nn(-c3cc(NC(=O)N4CC[C@@H](F)C4)ccc3F)cc2c1 [Compound 49, (3R)-3-fluoro-N-{4-fluoro-3-[5-(2-methylbutan-2-yl)-2H-pyrazolo[3,4-b]pyridin-2-yl]phenyl}pyrrolidine-1-carboxamide] | 12000 | 25000 | 12000 | 3400
8 | CCC(C)c1cnc2nn(-c3cc(NC(=O)N4CC[C@@H](F)C4)ccc3F)cc2c1 (stereo partly drawn) [Compound 50, (3R)-N-{3-[5-(butan-2-yl)-2H-pyrazolo[3,4-b]pyridin-2-yl]-4-fluorophenyl}-3-fluoropyrrolidine-1-carboxamide] | 100 | 78 | 79 | < 23
9 | CC(C)CCc1cnc2nn(-c3cc(NC(=O)N4CC[C@@H](F)C4)ccc3F)cc2c1 [Compound 52, (3R)-3-fluoro-N-{4-fluoro-3-[5-(3-methylbutyl)-2H-pyrazolo[3,4-b]pyridin-2-yl]phenyl}pyrrolidine-1-carboxamide] | 11 | 19 | 13 | < 23
10 | O=C(Nc1ccc(F)c(-n2cc3cc(-c4ccccn4)cnc3n2)c1)N1CC[C@@H](F)C1 [Compound 53, (3R)-3-fluoro-N-{4-fluoro-3-[5-(pyridin-2-yl)-2H-pyrazolo[3,4-b]pyridin-2-yl]phenyl}pyrrolidine-1-carboxamide] | 2 | 1.3 | 1 | < 23
11 | CC(C)(C)Cc1cnc2nn(-c3cc(NC(=O)c4ccco4)ccc3F)cc2c1 [Compound 59, N-{3-[5-(2,2-dimethylpropyl)-2H-pyrazolo[3,4-b]pyridin-2-yl]-4-fluorophenyl}furan-2-carboxamide] | 21 | 68 | 4.7 | < 23
12 | CCC(C)(C)c1cnc2nn(-c3cc(NC(=O)c4ccco4)ccc3F)cc2c1 [Compound 60, N-{4-fluoro-3-[5-(2-methylbutan-2-yl)-2H-pyrazolo[3,4-b]pyridin-2-yl]phenyl}furan-2-carboxamide] | 2400 | 2000 | 440 | 1300
13 | O=C(Nc1ccc(F)c(-n2cc3cc(-c4ccccn4)cnc3n2)c1)c1ccco1 [Compound 64, N-{4-fluoro-3-[5-(pyridin-2-yl)-2H-pyrazolo[3,4-b]pyridin-2-yl]phenyl}furan-2-carboxamide] | 3.9 | 2.2 | 1 | < 23
14 | Cc1cnc(C(=O)Nc2ccc(F)c(-n3cc4cc(C(C)C)cnc4n3)c2)cn1 [Compound 65, N-{4-fluoro-3-[5-(propan-2-yl)-2H-pyrazolo[3,4-b]pyridin-2-yl]phenyl}-5-methylpyrazine-2-carboxamide] | 1200 | 1000 | 960 | 1400
15 | CC1CCC(C(=O)Nc2ccc(F)c(-n3cc4cc(C(C)C)cnc4n3)c2)C1 (centres unmarked) [Compound 66, N-{4-fluoro-3-[5-(propan-2-yl)-2H-pyrazolo[3,4-b]pyridin-2-yl]phenyl}-3-methylcyclopentane-1-carboxamide] | 870 | 740 | 150 | 120
16 | CC(C)c1cnc2nn(-c3cc(NC(=O)c4ccc(F)cn4)ccc3F)cc2c1 [Compound 67, 5-fluoro-N-{4-fluoro-3-[5-(propan-2-yl)-2H-pyrazolo[3,4-b]pyridin-2-yl]phenyl}pyridine-2-carboxamide] | 310 | 210 | 42 | > 50000
17 | Cc1nc(C(=O)Nc2ccc(F)c(-n3cc4cc(C(C)C)cnc4n3)c2)c(C(F)(F)F)o1 [Compound 68, N-{4-fluoro-3-[5-(propan-2-yl)-2H-pyrazolo[3,4-b]pyridin-2-yl]phenyl}-2-methyl-5-(trifluoromethyl)-1,3-oxazole-4-carboxamide] | 2800 | 2200 | 160 | 510
18 | CC(C)c1cnc2nn(-c3cc(NC(=O)CC4CC4)ccc3F)cc2c1 [Compound 69, 2-cyclopropyl-N-{4-fluoro-3-[5-(propan-2-yl)-2H-pyrazolo[3,4-b]pyridin-2-yl]phenyl}acetamide] | 150 | 170 | 68 | 40
19 | CC(C)c1cnc2nn(-c3cc(NC(=O)c4ncc(F)cc4F)ccc3F)cc2c1 [Compound 70, 3,5-difluoro-N-{4-fluoro-3-[5-(propan-2-yl)-2H-pyrazolo[3,4-b]pyridin-2-yl]phenyl}pyridine-2-carboxamide] | 100 | 140 | 22 | 38
20 | CC(C)c1cnc2nn(-c3cc(NC(=O)C4CCC(C(F)(F)F)C4)ccc3F)cc2c1 (centres unmarked) [Compound 71, N-{4-fluoro-3-[5-(propan-2-yl)-2H-pyrazolo[3,4-b]pyridin-2-yl]phenyl}-3-(trifluoromethyl)cyclopentane-1-carboxamide] | 2800 | 4800 | 1400 | 3000

From patent US11384078B2, “5,6-fused-bicyclic compounds and compositions for the treatment of parasitic diseases” (NOVARTIS AG, priority 2017, dated 2022)
